Twelve compounds from US9447044B2, “Thioaryl derivatives as GPR120 agonists” (LG LIFE SCIENCES LTD., priority 2012, dated 2016) can be followed below.

The target in the first assay is T1, hGPR120 (Homo sapiens, UniProt Q5NUL3).
T1 construct: expressed in transfected cells; host or cells: CHO-K1
T1 sequence (Q5NUL3 1-361): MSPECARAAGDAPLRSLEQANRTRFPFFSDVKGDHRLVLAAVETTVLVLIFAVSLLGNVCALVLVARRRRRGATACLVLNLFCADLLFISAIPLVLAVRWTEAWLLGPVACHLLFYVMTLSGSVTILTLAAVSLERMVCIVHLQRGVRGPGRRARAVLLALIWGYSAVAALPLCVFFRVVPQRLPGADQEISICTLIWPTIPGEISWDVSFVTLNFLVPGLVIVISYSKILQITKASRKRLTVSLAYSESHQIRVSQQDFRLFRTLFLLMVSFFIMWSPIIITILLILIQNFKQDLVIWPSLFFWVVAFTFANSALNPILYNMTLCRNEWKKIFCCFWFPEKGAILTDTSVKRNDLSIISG
The experiment in a line: Measurement of activity of GPR120 agonist (cell-based assay), calcium fluorescence. The following applies: CHO-K1 cells expressing Ga16 and hGPR120; Calcium 5 dye fluorescence; activity class. The gist of the method: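 CHO-K1 cells co-expressing Gα16 and hGPR120, loaded with Calcium 5 dye for 1 h at 37° C, received serially diluted agonists (final 0.5% DMSO). Fluorescence (Ex 485/Em 525 nm) was expressed as relative percent over 0.1% DMSO-only wells; activity binned as A >20 μM, B 20–2 μM, C 2–0.2 μM, D <0.2 μM.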
On to `O=C(O)C1CC1c1ccc(OCc2cccnc2SC2CCCC2)cc1F` (stereo not drawn) [Example 174], for which the concentration giving a half-maximal response (EC50) was in the range of 200 to 2000 nM.
On the same count and under the same terms, the same measure for `O=C(O)CCc1ccc(OCc2cccnc2SC2CCC2)cc1F` [Example 175]: 200 to 2000 nM.
Take `O=C(O)CCc1ccc(OCc2cccc(SC3CCCC3)n2)cc1F` [Example 177]: the EC50 fell in the range of 200 to 2000 nM.
Take `O=C(O)CCc1ccc(OCc2cccnc2SCC2CC2)cc1F` [Example 178]: the 50% effective concentration (EC50) lay within 200 to 2000 nM.
Same read-out and setting: the same measure for `O=C(O)CCc1ccc(OCc2cccc(SCC3CC3)n2)cc1F` [Example 179]: 200 to 2000 nM; for `O=C(O)CCc1ccc(OCc2cccnc2SC2CCC2)cc1` [Example 180]: 200 to 2000 nM.
In the case of `O=C(O)CCc1ccc(OCc2cccc(SC3CCC3)n2)cc1` [Example 181], the EC50 is less than 200 nM.
Same read-out and setting: the same measure for `O=C(O)CCc1ccc(OCc2cccnc2SCC2CC2)cc1` [Example 182]: less than 200 nM.
Regarding `O=C(O)CCc1ccc(OCc2cccc(SCC3CC3)n2)cc1` [Example 183], the half-maximal effective concentration (EC50) lay in the range of 200 to 2000 nM.
On to `Cc1ccc(COc2ccc(CCC(=O)O)cc2)c(SC2CCCC2)n1` [Example 184], for which the EC50 was 200 to 2000 nM.

Still in this assay, the particulars now being: CHO-K1 cells expressing Ga16 and hGPR120; Calcium 5 dye fluorescence; numeric value.
With `O=C(O)CCc1ccc(OCc2cccc(SC3CCC3)n2)cc1F` [Example 176], the EC50 came out at 176 nM.
Still for that read-out and setting: the same measure for `Cc1ccc(COc2ccc(CCC(=O)O)cc2)c(SC(C)C)n1` [Example 185]: 441 nM.

One may read the EC50 as the concentration giving half of the maximal effect.
